Tested on: MDA-MB-468 complex spheroids with HUVEC/MSC, viability
Assay: Anticancer human tumor MDA-MB-468 cell line growth inhibition;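 note: spheroids exposed to agents for seven days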;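 for viability, T/C: 100% = DMSO vehicle control viability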
Settings: for IC50: curve of first compound; for viability, T/C: stronger effect = lower value
Excerpt: Multicellular complex tumor spheroid response to LSD1 Inhibitor Iadademstat in combination with a variety of drugs and investigational agents in selected tumor cell lines
The current study was undertaken to assess response to LSD1 inhibitors in combination with standard-of-care drugs and investigational agents in solid tumor complex spheroid models as well as in the K-562 leukemia. Complex spheroids include a stromal component modeled by human endothelial cells (HUVEC) and fibroblasts modeled by human mesenchymal stem cells (MSCs). The concentration ranges selected for each drug and investigational agent were based upon clinically achievable concentrations if the clinical Cmax of the agent was known.
Compounds. The drugs and investigational agents used in this study are listed on Table 1. All of the agents used, including staurosporine (NSC755774) and gemcitabine (NSC613327), were obtained from the Developmental Therapeutics Program, NCI. FDA-approved anticancer drugs are available from the NCI at http://dtp.nci.nih.gov/branches/dscb/oncology_drugset_explanation.html. Drugs and investigational agents were >95% pure by proton nuclear magnetic resonance (NMR) and liquid chromatography/mass spectrometry (LC/MS). Stock solutions were prepared at 400x in DMSO, stored at -70 degrees C, and diluted in fresh medium prior to their use. The final concentration of DMSO in cell culture wells never exceeded 0.25% (v/v). The FDA-approved anticancer drug set is available from the Developmental Therapeutics Program at https://dtp.cancer.gov/organization/dscb/obtaining/available_plates.htm. All drugs and investigational agents were tested over a range starting from a high concentration at or near the clinical Cmax and decreasing in half-log increments. If the clinical Cmax for an agent had not been determined, the highest concentration tested was 10 microM.
Cell Lines. The patient-derived cancer cell (PDC) lines: 292921-168-R-J2-PDC, K24384-001-R-PDC, and 521955-158-R2-J5-PDC pancreatic carcinomas, 556581-035-R-J1 ovarian carcinoma, 324938-238-R-J1-PDC, 855422-203-R-J1-PDC and 883617-216-R-J1-PDC urothelial bladder carcinomas, 743489-274-T-PDC renal cell carcinoma, 138582-R-J1 Merkel cell tumor, K60290-347-R-J1 and K57222-313-R-J1-PDC glioblastomas, 653999-131-R-J2-PDC, LG0703-F948-PDC, and 349418-098-R-PDC non-small cell lung carcinomas, 885512-296-R-J2-PDC, 171881-019-R-J1-PDC breast carcinomas and 186277-243-T-J2-PDC and 233499-124-R-J2-PDC colon carcinomas were obtained from the NCI Patient-Derived Models Repository (PDMR, https://pdmr.cancer.gov). The established cell lines NCI/ADR-RES (RRID:CVCL_14520 and OVCAR-5 (RRID:CVCL_1628) ovarian carcinomas, 786-O (RRID:CVCL_1051) and A498 (RRID:CVCL_A498) renal cell carcinoma, NCI-H211 (ATCC, cat. CRL-5824; RRID:CVCL_1529), NCI-H196 (ATCC, cat. CRL-5823, RRID:CVCL_1509), SW 1271 (ATCC, cat. CRL-2177, RRID:CVCL_1716) and NCI-H1876 (ATCC, cat. CRL-5902, RRID:CVCL_1503) small cell lung carcinomas, MDA-MB-231 (RRID:CVCL_0062) and MDA-MB-468 (RRID:CVCL_0419)breast carcinomas (10-12). Pooled donor human umbilical vein endothelial cells (HUVEC, Lonza, cat. CC-2519) and human mesenchymal stem cells (hMSC, Lonza, cat. PT-2501) were purchased from Lonza (Walkersville, MD).
Cell Culture. All cells were maintained in an incubator at 37 degrees C and 5% CO2 with 95% humidity. The PDC lines were cultured according to standard operating procedures established by the NCI PDMR (https://pdmr.cancer.gov). Briefly all PDCs were thawed and cultured in Matrigel-coated flasks prepared with a working solution of 1X Ham's F-12 nutrient mix, without supplementation (Invitrogen, Waltham, MA, cat. 11765054), 100 U/mL penicillin-streptomycin (Invitrogen, cat. 15140122), and 2.5% Matrigel (Corning Inc., Corning, NY, cat. 354248) for the first three passages. […]

[1] = second compound 0.1 µM, first compound 0.000949 µM
[2] = second compound 0.1 µM, first compound 0.003 µM
[3] = second compound 0.1 µM, first compound 0.00949 µM
[4] = second compound 0.1 µM, first compound 0.03 µM
[5] = second compound 0.1 µM, first compound 0.0949 µM
[6] = second compound 0.1 µM, first compound 0.3 µM
[7] = second compound 0.316 µM, first compound 0.000949 µM
[8] = second compound 0.316 µM, first compound 0.003 µM
[9] = second compound 0.316 µM, first compound 0.00949 µM
[10] = second compound 0.316 µM, first compound 0.03 µM
[11] = second compound 0.316 µM, first compound 0.0949 µM
[12] = second compound 0.316 µM, first compound 0.3 µM
[13] = second compound 1 µM, first compound 0.000949 µM
[14] = second compound 1 µM, first compound 0.003 µM
[15] = second compound 1 µM, first compound 0.00949 µM
[16] = second compound 1 µM, first compound 0.03 µM
[17] = second compound 1 µM, first compound 0.0949 µM
[18] = second compound 1 µM, first compound 0.3 µM
[19] = second compound 3.16 µM, first compound 0.000949 µM
[20] = second compound 3.16 µM, first compound 0.003 µM
[21] = second compound 3.16 µM, first compound 0.00949 µM
[22] = second compound 3.16 µM, first compound 0.03 µM
[23] = second compound 3.16 µM, first compound 0.0949 µM
[24] = second compound 3.16 µM, first compound 0.3 µM
[25] = second compound 10 µM, first compound 0.000949 µM
[26] = second compound 10 µM, first compound 0.003 µM
[27] = second compound 10 µM, first compound 0.00949 µM
[28] = second compound 10 µM, first compound 0.03 µM
[29] = second compound 10 µM, first compound 0.0949 µM
[30] = second compound 10 µM, first compound 0.3 µM

CCc1c2c(nc3ccc(O)cc13)-c1cc3c(c(=O)n1C2)COC(=O)[C@]3(O)CC + NC1CC1c1ccc(-c2cccc(O)c2)cc1
IC50 (second compound 0.1 µM): < 0.949 nM
IC50 (second compound 0.316 µM): < 0.949 nM
IC50 (second compound 1 µM): < 0.949 nM
IC50 (second compound 3.16 µM): < 0.949 nM
IC50 (second compound 10 µM): < 0.949 nM
viability, T/C [1]: 4.36%
viability, T/C [2]: 3.78%
viability, T/C [3]: 2.14%
viability, T/C [4]: 0.44%
viability, T/C [5]: 0.43%
viability, T/C [6]: 0.53%
viability, T/C [7]: 4.17%
viability, T/C [8]: 3.69%
viability, T/C [9]: 1.95%
viability, T/C [10]: 0.43%
viability, T/C [11]: 0.4%
viability, T/C [12]: 0.49%
viability, T/C [13]: 3.6%
viability, T/C [14]: 3.54%
viability, T/C [15]: 2.31%
viability, T/C [16]: 0.52%
viability, T/C [17]: 0.36%
viability, T/C [18]: 0.52%
viability, T/C [19]: 4.14%
viability, T/C [20]: 3.66%
viability, T/C [21]: 2.43%
viability, T/C [22]: 0.36%
viability, T/C [23]: 0.43%
viability, T/C [24]: 0.47%
viability, T/C [25]: 4.14%
viability, T/C [26]: 3.24%
viability, T/C [27]: 2.07%
viability, T/C [28]: 0.38%
viability, T/C [29]: 0.56%
viability, T/C [30]: 0.6%

Nc1ccn(C2OC(CO)C(O)C2(F)F)c(=O)n1 (stereo not given) + NC1CC1c1ccc(-c2cccc(O)c2)cc1
IC50 (second compound 0.1 µM): < 0.949 nM
IC50 (second compound 0.316 µM): < 0.949 nM
IC50 (second compound 1 µM): < 0.949 nM
IC50 (second compound 3.16 µM): < 0.949 nM
IC50 (second compound 10 µM): < 0.949 nM
viability, T/C [1]: 33.8%
viability, T/C [2]: 14.3%
viability, T/C [3]: 4.63%
viability, T/C [4]: 3.79%
viability, T/C [5]: 3.9%
viability, T/C [6]: 3.38%
viability, T/C [7]: 34.3%
viability, T/C [8]: 14.2%
viability, T/C [9]: 4.2%
viability, T/C [10]: 3.68%
viability, T/C [11]: 3.51%
viability, T/C [12]: 3.68%
viability, T/C [13]: 32.4%
viability, T/C [14]: 12.8%
viability, T/C [15]: 4.05%
viability, T/C [16]: 3.61%
viability, T/C [17]: 3.27%
viability, T/C [18]: 3.33%
viability, T/C [19]: 28.3%
viability, T/C [20]: 11.9%
viability, T/C [21]: 4.05%
viability, T/C [22]: 3.61%
viability, T/C [23]: 3.53%
viability, T/C [24]: 3.69%
viability, T/C [25]: 24.4%
viability, T/C [26]: 12.5%
viability, T/C [27]: 4.33%
viability, T/C [28]: 3.84%
viability, T/C [29]: 3.5%
viability, T/C [30]: 3.65%

O=C(c1cc(Cc2n[nH]c(=O)c3ccccc23)ccc1F)N1CCN(C(=O)C2CC2)CC1 + NC1CC1c1ccc(-c2cccc(O)c2)cc1
IC50 (second compound 0.1 µM): 909 nM
IC50 (second compound 0.316 µM): 840 nM
IC50 (second compound 1 µM): 645 nM
IC50 (second compound 3.16 µM): 677 nM
IC50 (second compound 10 µM): 144 nM
viability, T/C (second compound 0.1 µM, first compound 0.0316 µM): 93.6%
viability, T/C (second compound 0.1 µM, first compound 0.1 µM): 88.1%
viability, T/C (second compound 0.1 µM, first compound 0.316 µM): 70.5%
viability, T/C (second compound 0.1 µM, first compound 1 µM): 52.7%
viability, T/C (second compound 0.1 µM, first compound 3.16 µM): 18.6%
viability, T/C (second compound 0.1 µM, first compound 10 µM): 14.2%
viability, T/C (second compound 0.316 µM, first compound 0.0316 µM): 88.6%
viability, T/C (second compound 0.316 µM, first compound 0.1 µM): 88.2%
viability, T/C (second compound 0.316 µM, first compound 0.316 µM): 76%
viability, T/C (second compound 0.316 µM, first compound 1 µM): 46.2%
viability, T/C (second compound 0.316 µM, first compound 3.16 µM): 16.2%
viability, T/C (second compound 0.316 µM, first compound 10 µM): 11.9%
viability, T/C (second compound 1 µM, first compound 0.0316 µM): 98.2%
viability, T/C (second compound 1 µM, first compound 0.1 µM): 82.3%
viability, T/C (second compound 1 µM, first compound 0.316 µM): 66.7%
viability, T/C (second compound 1 µM, first compound 1 µM): 43.4%
viability, T/C (second compound 1 µM, first compound 3.16 µM): 13.9%
viability, T/C (second compound 1 µM, first compound 10 µM): 8.61%
viability, T/C (second compound 3.16 µM, first compound 0.0316 µM): 82%
viability, T/C (second compound 3.16 µM, first compound 0.1 µM): 75.4%
viability, T/C (second compound 3.16 µM, first compound 0.316 µM): 72.5%
viability, T/C (second compound 3.16 µM, first compound 1 µM): 38.7%
viability, T/C (second compound 3.16 µM, first compound 3.16 µM): 12.5%
viability, T/C (second compound 3.16 µM, first compound 10 µM): 7.33%
viability, T/C (second compound 10 µM, first compound 0.0316 µM): 63%
viability, T/C (second compound 10 µM, first compound 0.1 µM): 51.4%
viability, T/C (second compound 10 µM, first compound 0.316 µM): 43.6%
viability, T/C (second compound 10 µM, first compound 1 µM): 26.6%
viability, T/C (second compound 10 µM, first compound 3.16 µM): 13.8%
viability, T/C (second compound 10 µM, first compound 10 µM): 8.66%
